Reference: publication PMC9329436, “Optimization of the 4-anilinoquin(az)oline scaffold as epidermal growth factor receptor (EGFR) inhibitors for chordoma utilizing a toxicology profiling assay platform” (Scientific Reports, 2022)
Read-outs that look alike come from different tables or passages of the source.

Assays:
Assay type in all cases: biochemical
[1] = molecular target: 320 wild-type protein kinases (Homo sapiens, UniProt Q9UPE1); details: kinase STK23, singlicate
From the text: (§1) Table S4. Profiling of two compounds at two concentrations against 320 wild-type protein kinases; singlicate measurement; Residual activities (% of control).

[2] = molecular target: 320 wild-type protein kinases (Homo sapiens, UniProt P78362); details: kinase SRPK2, singlicate
From the text: as §1

[3] = molecular target: 320 wild-type protein kinases (Homo sapiens, UniProt Q9P289); details: singlicate
From the text: as §1

[4] = molecular target: T1, 320 wild-type protein kinases (Homo sapiens, UniProt P54760); details: singlicate
T1 sequence (P54760 16-987): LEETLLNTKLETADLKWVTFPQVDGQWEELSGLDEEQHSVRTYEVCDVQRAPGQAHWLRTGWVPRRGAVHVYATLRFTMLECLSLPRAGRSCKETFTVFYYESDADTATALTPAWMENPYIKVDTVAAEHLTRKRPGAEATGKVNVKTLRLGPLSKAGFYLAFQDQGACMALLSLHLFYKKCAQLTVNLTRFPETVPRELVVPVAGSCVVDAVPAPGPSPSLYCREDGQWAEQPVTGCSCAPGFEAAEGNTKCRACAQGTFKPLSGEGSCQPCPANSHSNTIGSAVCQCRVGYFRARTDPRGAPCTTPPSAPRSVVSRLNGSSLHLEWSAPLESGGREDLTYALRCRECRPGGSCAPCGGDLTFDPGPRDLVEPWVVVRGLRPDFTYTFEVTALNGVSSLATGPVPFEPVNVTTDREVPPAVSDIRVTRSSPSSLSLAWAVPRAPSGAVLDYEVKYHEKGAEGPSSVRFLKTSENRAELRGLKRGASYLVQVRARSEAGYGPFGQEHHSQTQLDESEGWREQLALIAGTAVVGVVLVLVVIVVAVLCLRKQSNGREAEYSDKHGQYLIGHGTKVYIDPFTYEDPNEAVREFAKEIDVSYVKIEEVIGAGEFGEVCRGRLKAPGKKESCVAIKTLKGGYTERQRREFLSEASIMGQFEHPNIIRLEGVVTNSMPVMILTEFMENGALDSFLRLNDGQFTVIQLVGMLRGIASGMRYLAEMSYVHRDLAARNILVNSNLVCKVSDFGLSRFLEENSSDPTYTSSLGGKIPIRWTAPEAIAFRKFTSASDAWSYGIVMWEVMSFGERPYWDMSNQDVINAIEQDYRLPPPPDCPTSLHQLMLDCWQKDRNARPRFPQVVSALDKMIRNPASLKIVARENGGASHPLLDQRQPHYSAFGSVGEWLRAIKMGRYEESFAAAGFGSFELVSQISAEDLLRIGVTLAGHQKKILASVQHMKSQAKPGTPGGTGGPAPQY
From the text: as §1

[5] = molecular target: T2, 320 wild-type protein kinases (Homo sapiens, UniProt P36888); details: singlicate
T2 sequence (P36888 27-993): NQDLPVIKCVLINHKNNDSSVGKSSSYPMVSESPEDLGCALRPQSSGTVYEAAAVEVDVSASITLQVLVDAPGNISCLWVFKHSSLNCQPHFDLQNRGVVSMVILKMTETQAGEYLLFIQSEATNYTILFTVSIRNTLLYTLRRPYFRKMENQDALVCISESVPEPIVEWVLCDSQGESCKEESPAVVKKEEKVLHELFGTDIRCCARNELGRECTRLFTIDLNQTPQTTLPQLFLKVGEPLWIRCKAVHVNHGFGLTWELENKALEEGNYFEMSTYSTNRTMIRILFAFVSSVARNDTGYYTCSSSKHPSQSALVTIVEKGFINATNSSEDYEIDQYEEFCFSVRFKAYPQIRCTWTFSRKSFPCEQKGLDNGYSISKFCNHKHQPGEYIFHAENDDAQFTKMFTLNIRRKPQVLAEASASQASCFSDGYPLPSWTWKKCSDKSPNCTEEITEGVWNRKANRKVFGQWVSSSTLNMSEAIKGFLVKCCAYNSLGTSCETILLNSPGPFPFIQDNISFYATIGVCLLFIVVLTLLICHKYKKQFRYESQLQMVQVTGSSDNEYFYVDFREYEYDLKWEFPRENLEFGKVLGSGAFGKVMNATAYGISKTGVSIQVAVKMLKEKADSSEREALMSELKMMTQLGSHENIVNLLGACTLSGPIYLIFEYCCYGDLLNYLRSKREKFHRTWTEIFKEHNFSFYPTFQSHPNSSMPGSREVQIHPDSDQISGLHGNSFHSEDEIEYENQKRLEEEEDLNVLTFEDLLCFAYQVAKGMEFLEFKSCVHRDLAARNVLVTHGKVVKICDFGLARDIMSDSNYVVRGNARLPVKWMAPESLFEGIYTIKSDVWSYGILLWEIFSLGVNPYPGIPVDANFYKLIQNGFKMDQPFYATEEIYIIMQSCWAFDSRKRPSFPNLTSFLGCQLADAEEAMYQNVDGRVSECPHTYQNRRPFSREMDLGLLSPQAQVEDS
From the text: as §1

[6] = molecular target: 320 wild-type protein kinases (Homo sapiens, UniProt P48729); details: singlicate
From the text: as §1

[7] = molecular target: T3, 320 wild-type protein kinases (Homo sapiens, UniProt P15735); details: singlicate
T3 sequence (P15735 1-406): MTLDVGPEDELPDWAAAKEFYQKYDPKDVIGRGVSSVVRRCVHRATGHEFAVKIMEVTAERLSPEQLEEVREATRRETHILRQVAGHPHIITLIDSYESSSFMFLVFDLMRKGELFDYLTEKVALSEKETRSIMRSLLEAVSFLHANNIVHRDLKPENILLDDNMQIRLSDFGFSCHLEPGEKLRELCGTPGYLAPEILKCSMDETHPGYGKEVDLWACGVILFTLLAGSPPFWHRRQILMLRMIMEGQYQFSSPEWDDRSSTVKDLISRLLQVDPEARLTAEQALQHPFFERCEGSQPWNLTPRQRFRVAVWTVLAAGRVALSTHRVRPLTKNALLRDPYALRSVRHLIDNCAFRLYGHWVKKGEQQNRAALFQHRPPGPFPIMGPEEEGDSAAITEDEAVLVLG
From the text: as §1

[8] = molecular target: 320 wild-type protein kinases (Homo sapiens, UniProt P07947); details: kinase YES, singlicate
From the text: as §1

Chain of 320 wild-type protein kinases (Homo sapiens, UniProt P78362) (P78362 whole entry): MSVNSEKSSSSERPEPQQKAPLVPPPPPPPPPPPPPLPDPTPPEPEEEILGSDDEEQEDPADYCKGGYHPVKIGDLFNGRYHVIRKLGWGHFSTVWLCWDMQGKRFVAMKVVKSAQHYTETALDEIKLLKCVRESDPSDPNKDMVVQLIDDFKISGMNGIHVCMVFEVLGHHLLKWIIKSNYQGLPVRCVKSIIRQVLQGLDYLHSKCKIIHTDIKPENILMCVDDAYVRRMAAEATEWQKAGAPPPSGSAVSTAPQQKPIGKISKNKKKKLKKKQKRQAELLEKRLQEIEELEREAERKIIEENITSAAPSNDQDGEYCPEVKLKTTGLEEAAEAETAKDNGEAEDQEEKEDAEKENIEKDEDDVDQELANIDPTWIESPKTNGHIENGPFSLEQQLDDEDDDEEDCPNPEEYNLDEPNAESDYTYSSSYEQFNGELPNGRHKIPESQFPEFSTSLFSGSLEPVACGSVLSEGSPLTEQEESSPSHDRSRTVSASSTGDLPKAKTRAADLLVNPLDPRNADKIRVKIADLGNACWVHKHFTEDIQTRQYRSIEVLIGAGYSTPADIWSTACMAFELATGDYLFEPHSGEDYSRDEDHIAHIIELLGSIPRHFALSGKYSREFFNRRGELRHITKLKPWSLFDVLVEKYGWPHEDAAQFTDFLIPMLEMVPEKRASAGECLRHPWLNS
Chain of 320 wild-type protein kinases (Homo sapiens, UniProt P48729) (P48729 whole entry): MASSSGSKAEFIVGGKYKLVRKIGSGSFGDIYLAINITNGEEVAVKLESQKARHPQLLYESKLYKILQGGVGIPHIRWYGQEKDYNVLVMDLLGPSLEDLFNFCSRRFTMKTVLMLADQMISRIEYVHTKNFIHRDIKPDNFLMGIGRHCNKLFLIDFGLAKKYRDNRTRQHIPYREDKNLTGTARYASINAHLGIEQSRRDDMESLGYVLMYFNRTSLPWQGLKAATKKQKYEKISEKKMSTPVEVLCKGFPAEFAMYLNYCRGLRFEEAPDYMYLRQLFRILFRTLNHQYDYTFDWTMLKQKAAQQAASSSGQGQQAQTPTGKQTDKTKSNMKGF
Chain of 320 wild-type protein kinases (Homo sapiens, UniProt Q9P289) (Q9P289 whole entry): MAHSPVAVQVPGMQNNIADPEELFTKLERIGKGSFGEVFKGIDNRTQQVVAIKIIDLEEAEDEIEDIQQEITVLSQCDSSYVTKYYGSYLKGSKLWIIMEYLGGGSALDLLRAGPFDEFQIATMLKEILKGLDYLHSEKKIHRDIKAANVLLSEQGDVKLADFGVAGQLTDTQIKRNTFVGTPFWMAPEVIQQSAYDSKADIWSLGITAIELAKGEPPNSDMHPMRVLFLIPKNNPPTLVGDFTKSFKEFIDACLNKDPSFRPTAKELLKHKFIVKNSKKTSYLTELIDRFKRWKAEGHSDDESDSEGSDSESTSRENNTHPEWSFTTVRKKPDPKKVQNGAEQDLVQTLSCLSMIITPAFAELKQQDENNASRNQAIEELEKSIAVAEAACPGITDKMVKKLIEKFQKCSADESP
Chain of 320 wild-type protein kinases (Homo sapiens, UniProt P07947) (P07947 whole entry): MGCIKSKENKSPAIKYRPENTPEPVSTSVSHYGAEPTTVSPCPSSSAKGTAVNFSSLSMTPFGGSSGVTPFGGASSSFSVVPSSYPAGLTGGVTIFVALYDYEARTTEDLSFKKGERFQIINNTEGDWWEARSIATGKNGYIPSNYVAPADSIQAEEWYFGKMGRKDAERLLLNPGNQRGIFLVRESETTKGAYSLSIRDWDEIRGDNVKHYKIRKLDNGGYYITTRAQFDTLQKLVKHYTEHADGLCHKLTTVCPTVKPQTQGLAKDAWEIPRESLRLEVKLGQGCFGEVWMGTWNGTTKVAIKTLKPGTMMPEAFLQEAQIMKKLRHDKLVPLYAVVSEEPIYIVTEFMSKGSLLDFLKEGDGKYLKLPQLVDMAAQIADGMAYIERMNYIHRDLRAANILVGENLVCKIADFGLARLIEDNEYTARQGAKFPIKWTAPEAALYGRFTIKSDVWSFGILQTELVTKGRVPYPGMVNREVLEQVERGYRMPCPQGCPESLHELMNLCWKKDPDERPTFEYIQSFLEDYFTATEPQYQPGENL
Chain of 320 wild-type protein kinases (Homo sapiens, UniProt Q9UPE1) (Q9UPE1 whole entry): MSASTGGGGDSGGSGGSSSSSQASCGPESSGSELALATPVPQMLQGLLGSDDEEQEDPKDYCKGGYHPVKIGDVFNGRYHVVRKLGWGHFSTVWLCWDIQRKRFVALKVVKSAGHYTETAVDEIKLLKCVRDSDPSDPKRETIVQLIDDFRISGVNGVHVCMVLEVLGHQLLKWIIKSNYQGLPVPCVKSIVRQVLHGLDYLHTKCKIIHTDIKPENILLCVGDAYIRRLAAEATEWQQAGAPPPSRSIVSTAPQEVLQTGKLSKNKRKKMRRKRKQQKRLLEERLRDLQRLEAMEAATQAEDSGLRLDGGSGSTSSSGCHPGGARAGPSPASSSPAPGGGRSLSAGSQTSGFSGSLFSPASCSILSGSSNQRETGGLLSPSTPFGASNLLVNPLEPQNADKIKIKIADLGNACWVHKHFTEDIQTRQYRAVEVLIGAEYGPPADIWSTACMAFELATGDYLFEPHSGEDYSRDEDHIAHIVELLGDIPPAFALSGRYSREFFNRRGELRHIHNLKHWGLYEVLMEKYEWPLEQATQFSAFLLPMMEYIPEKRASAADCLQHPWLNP

SMILES	Residual activity, STK23 ([1]; assay conc. 1.0E-06 M)	Residual activity, STK23 ([1]; assay conc. 1.0E-07 M)	Residual activity, SRPK2 ([2]; assay conc. 1.0E-06 M)	Residual activity, SRPK2 ([2]; assay conc. 1.0E-07 M)	Residual activity ([3]; MST4, 1.0E-06 M)	Residual activity ([3]; MST4, 1.0E-07 M)	Residual activity ([4]; EPHB4, 1.0E-06 M)	Residual activity ([4]; EPHB4, 1.0E-07 M)	Residual activity ([5]; FLT3, 1.0E-06 M)	Residual activity ([5]; FLT3, 1.0E-07 M)	Residual activity ([6]; CK1-alpha1, 1.0E-06 M)	Residual activity ([6]; CK1-alpha1, 1.0E-07 M)	Residual activity ([7]; PHKG2, 1.0E-06 M)	Residual activity ([7]; PHKG2, 1.0E-07 M)	Residual activity, YES ([8]; assay conc. 1.0E-06 M)	Residual activity, YES ([8]; assay conc. 1.0E-07 M)
C#Cc1cc(Nc2ncnc3cc(I)ccc23)ccc1Cl [Compound 41]	94 % of control	93 % of control	115 % of control	131 % of control	89 % of control	101 % of control	92 % of control	89 % of control	94 % of control	95 % of control	99 % of control	104 % of control	98 % of control	94 % of control	83 % of control	101 % of control
C#Cc1cc(Nc2ncnc3cc(OC)c(OC)cc23)ccc1Cl [Compound 45]	87 % of control	97 % of control	151 % of control	115 % of control	97 % of control	92 % of control	82 % of control	101 % of control	56 % of control	88 % of control	95 % of control	98 % of control	103 % of control	95 % of control	77 % of control	100 % of control
